The series has as its system souris. As to the kind of experiment: Acute toxicity in the mouse. Type of series: in vivo. Conditions: comparison of composé (Ia) and Méquitazine.

On to `c1ccc2c(c1)Sc1ccccc1N2CC1CN2CCC1CC2` (racemic) [Méquitazine racémique, [(aza-1 bicyclo(2,2,2)octyl-3)méthyl]-10 10H-phénothiazine], for which the “toxicité aiguë” value is “sensiblement identiques”.

`c1ccc2c(c1)Sc1ccccc1N2C[C@@H]1CN2CCC1CC2` [Composé (Ia), [(aza-1 bicyclo(2,2,2)octyl-3 (S))méthyl]-10 10H-phénothiazine]: the “toxicité aiguë” value is reported as “sensiblement identiques”.

The record behind these values is patent publication EP0089860A1, “Levogyrous isomer of mequitazine, process for its preparation and pharmaceutical preparations containing it” (priority 1982, dated 1983).
